# According to publication PMC10740831, “Synthesis, Hydrolytic Stability and In Vivo Biological Study of Bioconjugates of the Tetrapeptides FELL Containing Pyrrole Moiety” (Biomedicines, 2023):
# “Also recorded” adds a separate entry of the source. Peptide text beside a SMILES is read from it. * marks the point of attachment. X1 = CCOC(=O)c1c(C)[nH]c(C(=O)*)c1C; X2 = CCOC(=O)c1[nH]c(C)c(C(=O)*)c1C
# Tests used:
# male Wistar rats = experiment: Nociceptive Paw Pressure test (Randall–Selitto test), analgesic activity; assay type: in vivo, rat; details: 0.25 mg/kg i.p.; for course of analgesic activity over time (in words) / analgesic activity (paw pressure thresholds): Figure 6; for analgesic activity (paw pressure thresholds): male Wistar rats, 8–10 per group, measured every 10 min from 10th to 50th min; for highest analgesic activity reached, as percent of that of the parent acid: BB20A vs acid A, BB19B vs acid B
# Protocol: The male Wistar rats (180–200 g) were used for all experiments. All animals were kept at around 22 °C and under normal conditions. The experimental procedures are realized in the interval 10:00 a.m. to 1:00 p.m. and are approved by the Research Ethics Commission of the Medical University-Sofia.
# (§1) Several groups of experimental animals were used. Each group contains 8–10 rats: • The control group receives 0.2 mL of saline intraperitoneally injected (i.p.); • Six experimental groups receiving one of the 6 tested substances (0.25 mg/kg, i.p.)—pyrrole acid A, pyrrole acid B, BB19A, BB19B, BB20A, and BB20B; • Four experimental groups receiving Naloxone (1 mg/kg, i.p.) before the administration of the newly synthesized bioconjugates BB19A, BB19B, BB20A, and BB20B; • Four experimental groups receiving AM251 (1.25 mg/kg, i.p.) before the administration of the newly synthesized bioconjugates BB19A, BB19B, BB20A, and BB20B.
# (§2) An analgesiometer was used to measure the specific changes in the mechanical nociceptive thresholds (PPT) of experimental animals). A pressure was applied to the hind-paw and the value (g) required to elicit a nociceptive response (such as squeak or struggle) was taken as the mechanical nociceptive threshold. A cut-off value of 500 g was used to prevent damage of the paw. The targeted compounds were administrated and further nociception was evaluated each 10 min from the 10th min until the 50th min.
# (§3) The results were statistically assessed by one-way analysis of variance followed by Newman-Keuls post hoc comparison test. One-Way ANOVA has been used to analyze the data. Values are represented in arbitrary units (AU) according to the scale, as mean ± S.E.M. Values of p < 0.05 were considered to indicate statistical significance.
# opioid receptor = experiment: Paw pressure test after Naloxone pretreatment; assay type: in vivo, rat; details: Naloxone 1 mg/kg i.p. before bioconjugate 0.25 mg/kg i.p.; compared with no pretreatment; Figure 7
# Protocol: as §1
# (§4) Pretreatments with the non-selective opioid receptor antagonist Naloxone or the cannabinoid receptor antagonist AM251 were performed in order to estimate the types of receptors engaged in the effects observed—respectively, the opioid or the cannabinoid receptor [35].
# as §2, §3
# cannabinoid receptor = experiment: Paw pressure test after AM251 pretreatment; assay type: in vivo, rat; details: AM251 1.25 mg/kg i.p. before bioconjugate 0.25 mg/kg i.p.; for time points with paradoxically higher analgesia after AM251 pretreatment than without pretreatment: Figure 7
# Protocol: as §1, §4, §2, §3
# [1] = previously evaluated in vivo; cited from earlier work
# Text: Parent compound FELL (Phe-Glu-Leu-Leu-OH) and four analogs of the tetrapeptide were previously evaluated in vivo for their analgesic activity.
# [2] = test system: white blood cell accumulation in the bronchoalveolar fluid; details: cited from earlier work
# Text: In this context, tetrapeptide sequence H-FELL-OH is known from the literature as an anti-inflammatory agent.
compound,measurement,setting,value
"CCOC(=O)c1c(C)[nH]c(C(=O)N[C@@H](Cc2ccccc2)C(=O)N[C@@H](CCC(=O)O)C(=O)N[C@@H](CC(C)C)C(=O)N[C@@H](CC(C)C)C(N)=O)c1C [BB19A, A-Phe-Glu-Leu-Leu-NH2] (X1-FELL-NH2)",course of analgesic activity over time (in words),male Wistar rats; 10th to 50th min,biphasic activity
same,analgesic activity on the 50th min compared with parent pyrrole acid,male Wistar rats; 50th min,exceeded the parent alpha acid
same,analgesic activity (paw pressure thresholds),male Wistar rats,exhibited analgesic activity
same,"analgesic activity after opioid receptor blockade (Naloxone pretreatment), in words",opioid receptor,significant analgesia that even initially exceeded that of the substances without the pretreatment; also recorded: naloxone-independent in the first phase and naloxone-dependent in the second
same,time points with paradoxically higher analgesia after AM251 pretreatment than without pretreatment,cannabinoid receptor,10th min
"CCOC(=O)c1c(C)[nH]c(C(=O)N[C@@H](Cc2ccccc2)C(=O)N[C@@H](CCC(=O)O)C(=O)N[C@@H](CC(C)C)C(=O)N[C@@H](CC(C)C)C(=O)O)c1C [BB20A, A-Phe-Glu-Leu-Leu-OH] (X1-FELL-OH)",course of analgesic activity over time (in words),male Wistar rats; 10th to 50th min,decreased to control values
same,analgesic activity (paw pressure thresholds),male Wistar rats,exhibited analgesic activity
same,"highest analgesic activity reached, as percent of that of the parent acid",male Wistar rats,more than 87%
same,"analgesic activity after opioid receptor blockade (Naloxone pretreatment), in words",opioid receptor,Opioid receptors appear to be involved
same,"involvement of cannabinoid receptors in the analgesic effect (AM251 pretreatment), in words",cannabinoid receptor,they “turn on” at a later stage—after the 20th minute
same,time points with paradoxically higher analgesia after AM251 pretreatment than without pretreatment,cannabinoid receptor,10th min
"CCOC(=O)c1[nH]c(C)c(C(=O)N[C@@H](Cc2ccccc2)C(=O)N[C@@H](CCC(=O)O)C(=O)N[C@@H](CC(C)C)C(=O)N[C@@H](CC(C)C)C(=O)O)c1C [BB20B, B-Phe-Glu-Leu-Leu-OH] (X2-FELL-OH)",analgesic activity / PPTs on the 10th min compared with parent pyrrole acid,male Wistar rats,equivalent to the parent beta acid’s ones
same,course of analgesic activity over time (in words),male Wistar rats; 10th to 50th min,slowly decreased to control levels
same,analgesic activity (paw pressure thresholds),male Wistar rats,exhibited analgesic activity
same,"analgesic activity after opioid receptor blockade (Naloxone pretreatment), in words",opioid receptor,Opioid receptors appear to be involved
same,"involvement of cannabinoid receptors in the analgesic effect (AM251 pretreatment), in words",cannabinoid receptor,Cannabinoid receptors are also involved
"CCOC(=O)c1c(C)[nH]c(C(=O)O)c1C [acid A, 4-(Ethoxycarbonyl)-3,5-dimethyl-1H-pyrrole-2-carboxylic Acid]",duration of short-lasting analgesic activity,male Wistar rats,about 10 min
same,time window of short-lasting analgesic activity,male Wistar rats,between the 10th and 20th min
same,decrease of analgesic activity until the end of the estimated time,male Wistar rats; up to 50th min,56%
"CCOC(=O)c1[nH]c(C)c(C(=O)O)c1C [acid B, 5-(Ethoxycarbonyl)-2,4-dimethyl-1H-pyrrole-3-carboxylic Acid]",duration of short-lasting analgesic activity,male Wistar rats,about 10 min
same,time window of short-lasting analgesic activity,male Wistar rats,between the 20th and 30th min
same,PPTs on the 50th min compared with controls,male Wistar rats; 50th min,almost equivalent to the controls’
"B-Phe-Glu-Leu-Leu-NH2 [BB19B, bioconjugate of pyrrole acid B and tetrapeptide FELL-NH2]",analgesic activity / PPTs on the 10th min compared with parent pyrrole acid,male Wistar rats,more significant than the parent beta acid
same,variation of analgesic activity during the whole time of the experiment,male Wistar rats; 10th to 50th min,less than 7%
same,course of analgesic activity over time (in words),male Wistar rats; 10th to 50th min,sustained analgesic activity
same,analgesic activity on the 50th min compared with parent pyrrole acid,male Wistar rats; 50th min,more significant than the parent beta acid
same,analgesic activity (paw pressure thresholds),male Wistar rats,exhibited analgesic activity
same,"highest analgesic activity reached, as percent of that of the parent acid",male Wistar rats,64.4%
same,"analgesic activity after opioid receptor blockade (Naloxone pretreatment), in words",opioid receptor,significant analgesia that even initially exceeded that of the substances without the pretreatment
same,time points with paradoxically higher analgesia after AM251 pretreatment than without pretreatment,cannabinoid receptor,"10th, 20th, and 30th min"
Phe-Glu-Leu-Leu-NH2 [C-terminal amide of the tetrapeptide FELL],analgesic activity over time (in words),[1],gradually increased analgesic activity with time
"Phe-Glu-Leu-Leu-OH [H-FELL-OH, parent tetrapeptide known as an anti-inflammatory agent]",analgesic activity over time (in words),[1],constantly increasing analgesic activity for the total time of the evaluation
same,reduction of the total number of white blood cell accumulation in the bronchoalveolar fluid in lungs,[2],51%
